Several values for one entry are separate records, joined by “and”; a condition that tells them apart may be missing. Equal entries are not always repeated.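 Five compound concentrations were applied to cells in 96-well plates for 48 hours; endpoints were derived by simple linear interpolation of the resulting dose-response curve. GI50: concentration for 50% inhibition of growth. TGI: concentration producing complete growth inhibition.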
Experiments:
Assay in all cases: NCI anticancer screen, dose series, 48 h
[1] = system: MALME-3M melanoma
[2] = system: HL-60(TB) leukemia
[3] = system: U251 CNS
[4] = system: MOLT-4 leukemia
[5] = system: SR leukemia
[6] = system: HOP-92 NSCLC
[7] = system: LOX IMVI melanoma
[8] = system: TK-10 renal
[9] = system: CAKI-1 renal
[10] = system: DLD-1 colon
[11] = system: UACC-62 melanoma
[12] = system: 786-0 renal
[13] = system: A498 renal
[14] = system: SNB-19 CNS
[15] = system: DU-145 prostate
[16] = system: MDA-N
[17] = system: T-47D breast

Structure (SMILES)	TGI [1]	TGI [2]	TGI [3]	TGI [4]	TGI [5]	TGI [6]	TGI [7]	TGI [8]	TGI [9]	TGI [10]	TGI [11]	TGI [12]	TGI [13]	TGI [14]	TGI [15]	TGI [16]	TGI [17]	GI50 [4]	GI50 [7]	GI50 [11]
CC1=CC(=C(c2ccc(N)c(C)c2)c2ccc(N)c(C)c2)C=CC1=N	11.2 µM	17.5 µM	12.8 µM	30.9 µM	18.3 µM	14.2 µM	15.3 µM	> 66.2 µM	62.4 µM	> 100 µM	10.2 µM	21.1 µM	> 100 µM	15.8 µM	–	–	–	–	–	–
CC[N+](C)(C)c1ccc(C(=C2C=CC(=[N+](C)C)C=C2)c2ccc(N(C)C)cc2)cc1	66.3 µM	6 µM	14 µM	46.1 µM	35.6 µM	54.8 µM	24.2 µM	97.6 µM	> 100 µM	62.4 µM	29.7 µM	29 µM	48.4 µM	–	–	–	–	–	–	–
N#Cc1c(-c2cccc(Br)c2)cc(-c2ccc(Cl)cc2)nc1N	70.9 µM	69 µM	32.8 µM	50.1 µM	46.3 µM	32.4 µM	30.5 µM	45.2 µM	79.1 µM	–	29.2 µM	42.4 µM	–	40.1 µM	> 100 µM	46.7 µM	> 100 µM	–	–	–
COc1cc2c(cc1C)NC(=O)/C2=C\c1cccnc1	30.2 µM	> 100 µM	> 100 µM	60.1 µM	–	59.5 µM	> 100 µM	31.7 µM	36.2 µM	–	–	> 100 µM	26.1 µM	40.4 µM	54.3 µM	–	11.7 µM	–	–	–
COc1cccc2c1C(=O)c1c(O)c3c(c(O)c1C2=O)CC(O)(C(C)=O)CC3OC1CC([N+](C)(C)C)C(O)C(C)O1 (configuration not stated)	> 100 µM	> 100 µM	> 100 µM	56.1 µM	> 100 µM	> 100 µM	> 100 µM	> 100 µM	> 100 µM	> 100 µM	> 100 µM	> 100 µM	> 100 µM	> 100 µM	–	–	–	–	–	–
COC1C(=[N+]=[N-])C(=O)NC(=O)N1C1OC(COC(c2ccccc2)(c2ccccc2)c2ccccc2)C(O)C1O (configuration not stated)	33.8 µM	46.7 µM	35.5 µM	49.7 µM	–	–	30.1 µM	–	56.1 µM	37.3 µM	30.5 µM	–	35.4 µM	34 µM	–	–	–	–	–	–
OC12c3ccccc3C1CCCCCCCCCC21OCCCO1 (configuration not stated)	> 100 µM	> 100 µM	–	–	> 100 µM	–	> 100 µM	> 100 µM	–	> 100 µM	> 100 µM	–	–	> 100 µM	–	–	–	–	–	–
CCOC(=O)c1csc(NC(=O)CN2CCCCC2)n1	–	> 100 µM	> 100 µM	> 100 µM	–	> 100 µM	> 100 µM	> 100 µM	> 100 µM	–	> 100 µM	–	> 100 µM	> 100 µM	> 100 µM	> 100 µM	> 100 µM	–	–	–
COC(=O)C1C(O)C(C)C(O)C(C)/C=C\C=C(C)C(=O)Nc2c(C)c(OC(C)=O)c3c(c2O)C(=O)C(C)=C2OCOC(=C23)C(C)=CC(C)(O)C(O)C(C)C1O (configuration not stated)	> 100 µM	42.2 µM and > 100 µM	> 100 µM	45.4 µM and > 100 µM	> 100 µM	> 100 µM	41 µM and > 100 µM	> 100 µM	> 62.2 µM	31.4 µM	37.7 µM and > 100 µM	> 100 µM	> 75 µM	> 100 µM	> 100 µM	> 100 µM	> 100 µM	18.1 µM and 51.1 µM	17.9 µM and 41.3 µM	17 µM and > 100 µM
O=S(=O)(O)c1cccc2ccc(O)c(N=Nc3ccc(S(=O)(=O)c4ccc(N=Nc5c(O)ccc6cccc(S(=O)(=O)O)c56)cc4)cc3)c12	> 100 µM	> 100 µM	> 100 µM	> 100 µM	–	> 100 µM	–	> 100 µM	> 100 µM	–	> 100 µM	> 100 µM	–	> 100 µM	> 100 µM	> 100 µM	> 100 µM	–	–	–
O=S(=O)(O)c1ccc(N=Nc2c(O)ccc3ccccc23)cc1	> 100 µM	> 100 µM	> 100 µM	> 100 µM	> 100 µM	> 100 µM	> 100 µM	> 100 µM	> 100 µM	–	> 100 µM	> 100 µM	> 100 µM	> 100 µM	> 100 µM	> 100 µM	> 100 µM	–	–	–
O=S(=O)(O)c1cc(S(=O)(=O)O)c2c(N=Nc3ccccc3)c(O)ccc2c1	–	–	> 100 µM	> 100 µM	–	> 100 µM	> 100 µM	> 100 µM	> 100 µM	–	> 100 µM	> 100 µM	> 100 µM	> 100 µM	> 100 µM	> 100 µM	> 100 µM	–	–	–

From PubChem BioAssay (NCI)
